Values of other authors in patent US20250066562A1, “METHOD AND MATERIAL FOR DIFFERENTIATED SEQUESTRATION OF SUBSTANCES OF DIFFERENT SUBSTANCE GROUPS WITH THE AID OF HYDROGELS CONTAINING SULPHATED OR SULPHONATED COMPONENTS” (LEIBNIZ-INSTITUT FÜR POLYMERFORSCHUNG E.V., priority 2017, published 2025).

Columns and labels:
[1] = target: thrombin (Homo sapiens, UniProt P00734); conditions: according to Freudenberg et al., J. Controlled Release 220 (2015) 79-88
[2] = target: antithrombin (Homo sapiens, UniProt P01008); conditions: according to Freudenberg et al., J. Controlled Release 220 (2015) 79-88
Chain of antithrombin (P01008 33-464): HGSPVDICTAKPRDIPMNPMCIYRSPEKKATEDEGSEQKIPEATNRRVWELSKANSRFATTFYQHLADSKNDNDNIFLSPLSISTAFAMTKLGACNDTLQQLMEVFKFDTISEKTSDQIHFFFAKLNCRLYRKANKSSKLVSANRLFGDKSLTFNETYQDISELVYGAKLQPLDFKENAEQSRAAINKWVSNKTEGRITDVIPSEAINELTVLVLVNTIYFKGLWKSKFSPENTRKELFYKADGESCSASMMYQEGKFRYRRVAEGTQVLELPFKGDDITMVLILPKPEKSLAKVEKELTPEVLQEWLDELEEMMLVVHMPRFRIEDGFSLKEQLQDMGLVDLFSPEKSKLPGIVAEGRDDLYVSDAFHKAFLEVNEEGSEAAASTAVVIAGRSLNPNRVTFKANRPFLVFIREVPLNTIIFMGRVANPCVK

| Interaction with thrombin [1] | Interaction with antithrombin [2] | Substance |
| --- | --- | --- |
| lack of interaction | lack of interaction | N-desulfated Heparin [GB2] |
| interaction | interaction | Heparin [GB1] |
